According to patent publication US10750743B2, “Pyridazinone herbicides” (E.I. DU PONT DE NEMOURS AND COMPANY, priority 2015, dated 2020):

Tests used:
Assay type in all cases: in vivo
[1] = tested on: pigweed (Amaranthus retroflexus); experiment: Test A preemergence, directed soil spray, visual injury rating; settings: Amaranthus retroflexus, pre-emergence, 240 h, 0 is no effect, 100 is complete control, read-out: Plant response rating (0 to 100 scale), Pigweed
How it was run: (§1)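 Injury ratings, 0 (no effect) to 100 (complete control), were scored visually versus untreated plants roughly 10 d after treatment under greenhouse conditions. Treatments used surfactant-containing solvent formulations, sprayed onto soil preemergence or onto one- to two-leaf seedlings (2-10 cm) postemergence, grown in a loam-sand mix.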

[2] = tested on: ragweed (common ragweed, Ambrosia elatior); experiment: as above; settings: Ambrosia artemisiifolia, pre-emergence, 240 h, 0 is no effect, 100 is complete control, read-out: Plant response rating (0 to 100 scale), Ragweed
How it was run: as §1

kochia (Kochia scoparia) = experiment: as above; settings: Bassia scoparia, pre-emergence, 240 h, 0 is no effect, 100 is complete control, read-out: Plant response rating (0 to 100 scale), Kochia
How it was run: as §1

[3] = tested on: barnyardgrass (Echinochloa crus-galli); experiment: as above; settings: Echinochloa crus-galli, pre-emergence, 240 h, 0 is no effect, 100 is complete control, read-out: Plant response rating (0 to 100 scale), Barnyardgrass
How it was run: as §1

[4] = tested on: ryegrass, It. (Italian ryegrass, Lolium multiflorum); experiment: as above; settings: Lolium multiflorum, pre-emergence, 240 h, 0 is no effect, 100 is complete control, read-out: Plant response rating (0 to 100 scale), Ryegrass, It.
How it was run: as §1

[5] = tested on: foxtail, giant (giant foxtail, Setaria faberii); experiment: as above; settings: Setaria faberi, pre-emergence, 240 h, 0 is no effect, 100 is complete control, read-out: Plant response rating (0 to 100 scale), Foxtail, Giant
How it was run: as §1

[6] = tested on: pigweed (Amaranthus retroflexus); experiment: Test A postemergence application, visual injury rating; settings: Amaranthus retroflexus, post-emergence, 240 h, 0 to 100 scale, 0 no effect, 100 complete control, read-out: Pigweed plant response rating
How it was run: as §1

[7] = tested on: ragweed (common ragweed, Ambrosia elatior); experiment: as above; settings: Ambrosia artemisiifolia, post-emergence, 240 h, 0 to 100 scale, 0 no effect, 100 complete control, read-out: Ragweed plant response rating
How it was run: as §1

[8] = tested on: blackgrass (Alopecurus myosuroides); experiment: as above; settings: Alopecurus myosuroides, post-emergence, 240 h, 0 to 100 scale, 0 no effect, 100 complete control, read-out: Blackgrass plant response rating
How it was run: as §1

[9] = tested on: galium (catchweed bedstraw, Galium aparine); experiment: as above; settings: Galium, post-emergence, 240 h, 0 to 100 scale, 0 no effect, 100 complete control, read-out: Galium plant response rating
How it was run: as §1

corn (Zea mays) = experiment: as above; settings: Zea mays, post-emergence, 240 h, 0 to 100 scale, 0 no effect, 100 complete control, read-out: Corn plant response rating
How it was run: as §1

[10] = tested on: barnyardgrass (Echinochloa crus-galli); experiment: as above; settings: Echinochloa crus-galli, post-emergence, 240 h, 0 to 100 scale, 0 no effect, 100 complete control, read-out: Barnyardgrass plant response rating
How it was run: as §1

[11] = tested on: ryegrass, It. (Italian ryegrass, Lolium multiflorum); experiment: as above; settings: Lolium multiflorum, post-emergence, 240 h, 0 to 100 scale, 0 no effect, 100 complete control, read-out: Ryegrass, It. plant response rating
How it was run: as §1

[12] = tested on: wheat (Triticum aestivum); experiment: as above; settings: Triticum aestivum, post-emergence, 240 h, 0 to 100 scale, 0 no effect, 100 complete control, read-out: Wheat plant response rating
How it was run: as §1

[13] = tested on: ducksalad (Heteranthera limosa); experiment: Test B flooded paddy test, visual rating; settings: Heteranthera limosa, 360 h; Flood, 250 g ai/ha, applied to paddy water, rated after 13 to 15 d; read-out: Ducksalad plant response rating (0 to 100 scale, 0 is no effect, 100 is complete control)
How it was run: (§2)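 Ratings use a 0-100 visual scale, where 100 is complete control, and compare treated plants with controls after 13 to 15 d of greenhouse growth. Compound went straight into paddy water kept 3 cm over the soil surface, applied to seedlings at the 2-leaf stage.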

[14] = tested on: barnyardgrass (Echinochloa crus-galli); experiment: Test B flooded paddy test, visual rating; settings: Echinochloa crus-galli, 360 h; Flood, 250 g ai/ha, applied to paddy water, rated after 13 to 15 d; read-out: Barnyardgrass plant response rating (0 to 100 scale, 0 is no effect, 100 is complete control)
How it was run: as §2

[15] = tested on: sedge, umbrella (small-flower umbrella sedge, Cyperus difformis); experiment: Test B flooded paddy test, visual rating; settings: Cyperus difformis, 360 h; Flood, 250 g ai/ha, applied to paddy water, rated after 13 to 15 d; read-out: Sedge, Umbrella plant response rating (0 to 100 scale, 0 is no effect, 100 is complete control)
How it was run: as §2

rice (Oryza sativa) = experiment: Test B flooded paddy test, visual rating; settings: Oryza sativa, 360 h; Flood, 250 g ai/ha, applied to paddy water, rated after 13 to 15 d; read-out: Rice plant response rating (0 to 100 scale, 0 is no effect, 100 is complete control)
How it was run: as §2

`CC(=O)Oc1c(C)nn(C)c(=O)c1-c1c(C)ccc2cc(C)oc12` [Compound 11, 5-(acetyloxy)-4-(2,6-dimethyl-7-benzofuranyl)-2,6-dimethyl-3(2H)-pyridazinone] was tested, and the pest or weed control at 125 g/ha ([1]; 125 g ai/ha) was 100%, the pest or weed control at 500 g/ha ([1]; 500 g ai/ha) was 100% and the pest or weed control at 125 g/ha ([2]; 125 g ai/ha) was 90%. The pest or weed control at 500 g/ha ([2]; 500 g ai/ha) was 100%, the pest or weed control at 125 g/ha (kochia (Kochia scoparia); 125 g ai/ha) was 90% and the pest or weed control at 500 g/ha (kochia (Kochia scoparia); 500 g ai/ha) was 100%. For the same molecule, the pest or weed control at 125 g/ha ([3]; 125 g ai/ha) was 50%, the pest or weed control at 500 g/ha ([3]; 500 g ai/ha) was 100% and the pest or weed control at 125 g/ha ([4]; 125 g ai/ha) was 100%. The pest or weed control at 500 g/ha ([4]; 500 g ai/ha) was 100%, the pest or weed control at 125 g/ha ([5]; 125 g ai/ha) was 50% and the pest or weed control at 500 g/ha ([5]; 500 g ai/ha) was 100%. It also gave a pest or weed control at 125 g/ha ([6]; 125 g ai/ha) of 90%, a pest or weed control at 500 g/ha ([6]; 500 g ai/ha) of 100% and a pest or weed control at 125 g/ha ([7]; 125 g ai/ha) of 100%. For the same molecule, the pest or weed control at 500 g/ha ([7]; 500 g ai/ha) was 100%, the pest or weed control at 125 g/ha ([8]; 125 g ai/ha) was 60% and the pest or weed control at 500 g/ha ([8]; 500 g ai/ha) was 90%. The pest or weed control at 125 g/ha ([9]; 125 g ai/ha) was 90%, the pest or weed control at 500 g/ha ([9]; 500 g ai/ha) was 90% and the plant injury at 125 g/ha (corn (Zea mays); 125 g ai/ha) was 0%. The plant injury at 500 g/ha (corn (Zea mays); 500 g ai/ha) was 30%, the pest or weed control at 125 g/ha ([10]; 125 g ai/ha) was 30% and the pest or weed control at 500 g/ha ([10]; 500 g ai/ha) was 60%. The pest or weed control at 125 g/ha ([11]; 125 g ai/ha) was 100%, the pest or weed control at 500 g/ha ([11]; 500 g ai/ha) was 100% and the plant injury at 125 g/ha ([12]; 125 g ai/ha) was 0%. It also gave a plant injury at 500 g/ha ([12]; 500 g ai/ha) of 40%, a pest or weed control at 250 g/ha [13] of 0% and a pest or weed control at 250 g/ha [14] of 0%. The pest or weed control at 250 g/ha [15] was 0% and the plant injury at 250 g/ha (rice (Oryza sativa)) was 0%.
